Source: patent US20220378776A1, “DRUG COMBINATION OF QUINOLINE DERIVATIVE AND PD-1 MONOCLONAL ANTIBODY” (CHIA TAI TIANQING PHARMACEUTICAL GROUP CO., LTD, priority 2019, published 2022)

What was measured:
[1] = phase 2 clinical trial; cited from earlier work
advanced NSCLC = conditions: phase 3, Chinese patients; cited from earlier work
[2] = Expected steady state exposure of sintilimab 200 mg Q3W; format: in vivo
Experimental: In some embodiments of the present application, sintilimab is administered at a single dose of 200 mg by intravenous infusion, once every 3 weeks, and every 3 weeks is a treatment cycle.
The selection of the administration mode of sintilimab in this study was mainly based on the data of safety and exposure (concentration)-response (PD-1 receptor occupancy) relationship in the currently completed preliminary studies, combined with the preclinical in vitro/in vivo efficacy and related comparison data of similar drugs.

Row | Compound | overall survival [1] | progression-free survival [1] | overall survival (advanced NSCLC) | progression-free survival (advanced NSCLC) | tolerability (advanced NSCLC) | time of continuous administration to reach steady state ([2]; 200 mg Q3W (4 times)) [days] | mean steady state trough concentration ([2]; 200 mg Q3W continuously for 84 days (4 times))
1 | COc1cc2c(Oc3ccc4[nH]c(C)cc4c3F)ccnc2cc1OCC1(N)CC1 [anlotinib, 1-[[[4-(4-fluoro-2-methyl-1H-indol-5-yl)oxy-6-methoxyquinolin-7-yl]oxy]methyl]cyclopropylamine] | potential benefit in overall survival | improve progression-free survival | prolonged | prolonged | well tolerated |  | 
2 | sintilimab: anti-PD-1 human IgG4 monoclonal antibody; heavy chain SEQ ID NO: 10, light chain SEQ ID NO: 9; antibody D of CN108473977A |  |  |  |  |  | 84 | about 26 μg/mL
